{"source": "patent US20210008047A1", "about": "“TARGETING MINIMAL RESIDUAL DISEASE IN CANCER WITH RXR ANTAGONISTS” (VIB VZW, priority 2018, published 2021)", "key": {"[1]": {"system": "MM052 cells", "test": "Colony assay and Cell Titer Glo assay in short-term melanoma culture MM052", "assay_type": "cell-based, human", "experimental": "E) and Cell Titer Glo assay performed after 6 days after incubation of the short culture melanoma line MM052 with MEK inhibitor trametinib (TRA; 2 nM), RXRG agonist bexarotene (BEX; 1 uM), FAK inhibitor PF-562271 (1 uM) and RXRG antagonist HX531 (2 uM).\nCells were grown to near confluency on 12well plates and treated with the indicated drug combinations for the indicated time period. Cells were washed once with PBS, stained with crystal violet (1% crystal violet w/v, 35% methanol v/v) for 15 min, washed with PBS and destained in tap water.\n2500 cells were plated onto a 96well plate and treated with the indicated drug combinations for the indicated time period. Cell Titer Glo assay was performed according to the manufacturer's instruction (Promega) and luminescence was measured on a VictorX3 (Perkin Elmer)."}, "[2]": {"system": "MEL006 cells", "test": "FACS of GFRA2-positive (NDTC) cells in drug-exposed MEL006 cultures", "method": "Cells from dissociated MEL006 tumors were grown in 5% CO2 at 37° C. in F10 (Gibco, Life Technologies) supplemented with 10% FBS (Gibco, Life Technologies) and 0.25% Glutamax (Gibco, Life Technologies).\nCells were incubated with GFRA2 antibody (AF429 R&D 3 μg/mL) for 45 minutes at room temperature, followed by anti-goat secondary antibody conjugated with Alexa Fluor® 594 (ThermoFisherScientific) for 30 min at room temperature. Cells were resuspended in FACS sorting buffer (culture medium supplied with 1% EDTA 100 mM).\nTo assess whether emergence of NDTCs upon MAPK inhibition is cancer cell intrinsic or depends on micro-environmental cues, we exposed 2D cultures of Me1006 to near IC25 concentrations of dabrafenib and trametinib for 10 days."}}, "data": [{"smiles": "CN1c2ccc([N+](=O)[O-])cc2N=C(c2ccc(C(=O)O)cc2)c2cc3c(cc21)C(C)(C)CCC3(C)C", "note": "[HX531]", "values": [{"measurement": "Sensitization of cells to trametinib", "setting": "[1]; MM52, HX531 2 uM, trametinib 2 nM per FIG. 7 legend", "result": "sensitized"}, {"measurement": "Drug-dependent induction of GFRA2-positive cells", "setting": "[2]; in the presence of IC50 concentrations of the BRAF and MEK-inhibitors", "result": "completely inhibited"}]}, {"smiles": "CN(c1ncccc1CNc1nc(Nc2ccc3c(c2)CC(=O)N3)ncc1C(F)(F)F)S(C)(=O)=O", "note": "[PF-562271]", "values": [{"measurement": "Drug-dependent emergence of the GFRA2-high cell population", "setting": "[2]; FAK inhibitor together with DT, dose-dependent", "result": "diminished"}, {"measurement": "Sensitivity of GFRA2high cells to FAK inhibitors", "setting": "[2]; MEL006 cells treated with DT and or FAK inhibitors, then FACS sorted for GFRA2", "result": "sensitive"}]}, {"smiles": "C=C(c1ccc(C(=O)O)cc1)c1cc2c(cc1C)C(C)(C)CCC2(C)C", "note": "[bexarotene]", "values": [{"measurement": "Sensitivity of cells to a combination of trametinib/FAK-inhibitors", "setting": "[1]; MM52", "result": "increased"}, {"measurement": "Long-term growth inhibition", "setting": "[1]; MM52, bexarotene alone", "result": "did not induce measurable long-term growth inhibition"}, {"measurement": "Sensitivity of cells to trametinib", "setting": "[1]; MM52, bexarotene at concentrations as low as 10 nM", "result": "significantly decreased"}, {"measurement": "Cells in which cell death occurred", "setting": "[1]; bexarotene with trametinib/FAK-inhibitors, after 3 days of treatment (data not shown)", "result": "~100", "unit": "%"}]}]}
